The values that follow come from US20260234165A1, “MACROCYCLIC COMPOUNDS, PREPARATION METHOD THEREFOR, AND USE THEREOF” (GENFLEET THERAPEUTICS (SHANGHAI) INC., priority 2004, published 2026).

A word on the IC50: it is the point on the concentration scale where inhibition reaches its midpoint.

For experiment [1], the system named is AsPC-1 cells (KRAS G12D mutation). In words: 3D cell proliferation assay (CellTiter Glo-3D), AsPC-1. To be noted: Homo sapiens, ASPC1, 3D cell proliferation (CellTiter Glo-3D), medium with 2% FBS, read-out: AsPC-1 AP IC50. Format: cell-based, human. The gist of the method:
(§1)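 Cells seeded at 800 per well in medium with 2% FBS, treated next day with 3.16-fold dilution series (0.1% DMSO) for 5 days at 37°C. Viability by CellTiter-Glo 3D luminescence; inhibition normalised to DMSO and cell-free controls, IC50 by four-parameter fit.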
(In general: ATP-based viability assays read luminescence as a measure of living cells.)

In the next experiment the test system is NCI-H441 cells. Put plainly: 3D cell proliferation assay (CellTiter Glo-3D), NCI-H441. Format: cell-based, human. To be noted: Homo sapiens, NCI-H441, 3D cell proliferation (CellTiter Glo-3D), medium with 2% FBS, read-out: H441 AP IC50. The gist of the method:
as §1

Take `CCn1c(-c2cc(C#CCN3CCS(=O)(=O)CC3)cnc2[C@H](C)OC)c2c3cc(ccc31)-c1csc(n1)C[C@H](Nc1nnc3cc(C)ccn13)C(=O)N1CCC[C@H](N1)C(=O)OCC(C)(C)C2` (atropisomer, axis not shown; (Ra)) [Compound Z911, (6^3S,4S,Z)—(Ra)-1^2-(5-(3-(1,1-dioxidothiomorpholino)prop-1-yn-1-yl)-2-((S)-1-methoxyethyl)pyridin-3-yl)-1^1-ethyl-10,10-dimethyl-4-((7-methyl-[1,2,4]triazolo[4,3-a]pyridin-3-yl)amino)-6^1,6^2,6^3,6^4,6^5,6^6-hexahydro-1^1H-8-oxa-2(4,2)-thiazola-1(5,3)-indola-6(1.3)-pyridazinacycloundecaphane-5,7-dione]: the IC50 in experiment [1] was 2.27 nM; in the experiment on NCI-H441 cells it was 1.16 nM.
